Measurements taken from US10813931B2, “Methods and compositions relating to the treatment of cancer” (THE BRIGHAM AND WOMEN'S HOSPITAL, INC., priority 2013, dated 2020).

System: taxane-refractory breast cancer explant
Test: Human refractory breast cancer explant, immunohistochemistry
Conditions: ex vivo 72 h, taxane-containing regimen or Doxil, N=7
Method: Anonymous human breast cancer tissues (N=7) from patients refractory to taxane-containing regimens were incubated ex vivo in autologous patient serum in the presence or absence of taxane-containing or liposomal doxorubicin (Doxil) regimens for 72 hours. Following fixation in formalin and paraffin embedding, tissue was processed by H&E to identify tumor cells and immunohistochemistry (IHC) was performed to identify protein expression. IHC scores were determined in a third party blinded fashion by multiplying the intensity of staining at the cellular level with the percentage of cells stained per field of view.
Fresh tumor tissues were collected from breast cancer patients immediately after surgical resection at HCG cancer hospital, Bangalore, India. The tumor samples were transported to the laboratory at 4° C., in appropriate transport buffer within 60 minutes post-resection, for ex-vivo studies and molecular and pathological evaluation. […] After 48 hrs of treatment, tumor cell viability was measured and release of soluble cleaved caspase-3 and caspase-8 were determined.
Human Tumor tissues were fixed in Phos stop (Roche) containing 4% buffered formalin and embedded in paraffin. […] Immunoreactivity was scored by intensity of staining (0, no staining, 1 weak; 2 moderate; 3 strong) and percentage of positive cells. By multiplying both values, a final score was calculated. […]

CC(=O)O[C@@]12CO[C@@H]1C[C@H](O)[C@@]1(C)C(=O)[C@H](O)C3=C(C)[C@@H](OC(=O)[C@H](O)[C@@H](NC(=O)OC(C)(C)C)c4ccccc4)C[C@@](O)([C@@H](OC(=O)c4ccccc4)[C@H]21)C3(C)C [DTX, docetaxel]
CD44 expression (IHC): induced the over-expression of CD44
